Measurements taken from patent publication US20100173890A1, “Compounds, Process for their Preparation, Intermediates, Pharmaceutical Compositions and their use in the Treatment of 5-HT6 Mediated Disorders such as Alzheimer's Disease, Cognitive Disorders, Cognitive Impairment Associated with Schizophrenia, Obesity and Parkinson's Disease” (AstraZeneca AB, priority 2005, published 2010).

Target: T1, Rat Striatal 5-HT6 Receptors (Rattus norvegicus, UniProt P31388)
T1 construct: Striatal tissue from adult rats (Sprague-Dawley, 320-370 g, B & K Sweden) were dissected out, weighed and homogenized; from tissue; host or cells: rat striatum (Sprague-Dawley) membranes
Test: [125I]SB258585 binding to rat striatal 5-HT6 receptors
Conditions: competition with 0.5-1 nM [125I]SB258585, rat striatal membranes
Protocol: Method for [125I]SB258585 Binding to Rat Striatal 5-HT6 Receptors
[^125I]SB258585 (1) with specific radioactivity 2000 Ci/mmol was purchased from Amersham Biosciences Europe GmbH, Freiburg, Germany. Other chemicals were is purchased from commercial sources and were of analytical grade.
Striatal tissue from adult rats (Sprague-Dawley, 320-370 g, B & K Sweden) were dissected out, weighed and homogenized in buffer containing 50 mM Tris-HCl, 4 mM MgCl2, 1 mM EDTA, 10 μM pargyline and protease inhibitor (Complete, Roche Diagnostics) pH 7.4 using an Ultra-Turrax T8 (IKA Labortechnik, Germany). The tissue homogenate was centrifuged at 48 000×g for 10 min and the pellet was resuspended and recentrifuged as above. […]
Saturation binding studies were carried out in duplicate with 1-3 mg w.w. per tube in 0.5 ml buffer (50 mM Tris, 4 mM MgCl2, 100 mM NaCl, 1 mM EDTA, 5 mM ascorbate and 10 μM pargyline at pH 7.4), 0.2 nM [^125I]SB258585 and unlabelled SB258585 to give a final concentration range of 0.23-20 nM (12 conc.). Non-specific binding was determined in the presence of 10 μM methiothepin. […] The radioactivity was determined in a Packard Tri-Carb 2900TR liquid scintillation counter: Data were analyzed by non-linear regression analyses using PRISM 4.00 (GraphPad Software Inc., San Diego, Calif.). […]

T1 sequence (P31388 whole entry): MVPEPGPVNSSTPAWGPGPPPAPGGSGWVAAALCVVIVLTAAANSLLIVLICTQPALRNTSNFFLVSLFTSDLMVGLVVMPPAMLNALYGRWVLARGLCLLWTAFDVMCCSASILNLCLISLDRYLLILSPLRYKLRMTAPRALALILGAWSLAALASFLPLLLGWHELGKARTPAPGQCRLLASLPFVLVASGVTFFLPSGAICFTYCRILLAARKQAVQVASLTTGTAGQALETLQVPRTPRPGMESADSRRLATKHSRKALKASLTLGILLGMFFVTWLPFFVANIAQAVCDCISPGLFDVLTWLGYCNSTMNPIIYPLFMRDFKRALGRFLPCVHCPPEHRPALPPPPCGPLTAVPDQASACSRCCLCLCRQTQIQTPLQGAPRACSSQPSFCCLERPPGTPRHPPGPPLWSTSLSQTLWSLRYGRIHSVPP

O=S(=O)(Nc1cccc(Cl)c1)c1ccc2c(c1)CNCCO2 [Example 3, N-(3-Chlorophenyl)-2,3,4,5-tetrahydro-1,4-benzoxazepine-7-sulfonamide]
Ki: 82 ± 28 nM
